Data taken from patent publication US10716790B2, “Method for treating cancer by combined use” (priority 2015, dated 2020).

Assays:
[1] = test system: human acute myeloid leukemia cell line MOLM-13 cells having a FLT3-ITD mutation and wild-type TP53; experiment: In vivo effect of combined use on subcutaneously transplanted MOLM-13 tumors in NOD-SCID mice; details: oral; for TGI (%): 17 days after tumor inoculation
Procedure: (§1) Human acute myeloid leukemia cell line MOLM-13 cells having a FLT3-ITD mutation and wild-type TP53 were suspended to 5×10^7 cells/mL using phosphate-buffered saline. 0.1 mL of the prepared cell suspension was subcutaneously transplanted to each NOD-SCID mouse (male, 5 to 7 weeks old). On 6 days after the tumor inoculation, after confirmation that the average tumor volume exceeded 100 mm^3, the mice were randomized (N=6/group) on the basis of their tumor volume values. […] The administration was performed once a day for 5 consecutive days (6 to 10 days after the tumor inoculation) from the date of randomization (6 days after the tumor inoculation), and after a 2-day drug holiday, performed once a day for 4 consecutive days (13 to 16 days after the tumor inoculation). The length (mm) and width (mm) of tumor were measured over time using an electronic digital caliper. Tumor growth inhibition % (TGI %) on the date of assessment (17 days after the tumor inoculation) calculated according to calculation formula (4) shown below was used in evaluation. Also, the body weights were measured over time using an automatic balance for small animals, and body weight change % was calculated according to calculation formula (5) shown below to assess the influence of drug administration on the body weights. In addition, the results of the last body weight measurement were used in dose calculation. TGI (%)=(1−A/B)×100 (4)
A: Average tumor volume of the compound-administered group on the date of assessment (*)
B: Average tumor volume of the untreated control group on the date of assessment (*)
(§2) *: The tumor volume was calculated according to ½×[Major axis of tumor]×[Minor axis of tumor]×[Minor axis of tumor]. Body weight change (%)=Average body weight change % of the individuals Body weight change % of each individual=[…] (5)

[2] = Body weight change of MOLM-13 tumor-bearing NOD-SCID mice under drug administration; type: in vivo, mouse; details: oral
Procedure: as §1, §2
BWn: Body weight on day n
BWs: Body weight on the start day of administration

[3] = DS-3032b 25 mg/kg, day 6 after tumor inoculation
[4] = DS-3032b 25 mg/kg, day 8 after tumor inoculation
[5] = DS-3032b 25 mg/kg, day 10 after tumor inoculation
[6] = DS-3032b 25 mg/kg, day 13 after tumor inoculation
[7] = DS-3032b 25 mg/kg, day 15 after tumor inoculation
[8] = DS-3032b 25 mg/kg, day 17 after tumor inoculation
[9] = DS-3032b 50 mg/kg, day 6 after tumor inoculation
[10] = DS-3032b 50 mg/kg, day 8 after tumor inoculation
[11] = DS-3032b 50 mg/kg, day 10 after tumor inoculation
[12] = DS-3032b 50 mg/kg, day 13 after tumor inoculation
[13] = DS-3032b 50 mg/kg, day 15 after tumor inoculation
[14] = DS-3032b 50 mg/kg, day 17 after tumor inoculation

## CC1(C)CCC2(CC1)N[C@@H](C(=O)N[C@@H]1CC[C@@H](C(N)=O)OC1)[C@H](c1ccnc(Cl)c1F)[C@]21C(=O)Nc2cc(Cl)ccc21.Cc1ccc(S(=O)(=O)O)cc1 [Compound A, (3′R,4′S,5′R)—N-[(3R,6S)-6-carbamoyltetrahydro-2H-pyran-3-yl]-6″-chloro-4′-(2-chloro-3-fluoropyridin-4-yl)-4,4-dimethyl-2″-oxo-1″,2″-dihydrodispiro[cyclohexane-1,2′-pyrrolidine-3′,3″-indole]-5′-carboxamide tosylate]
[1]; Compound A 25 mg/kg
  TGI (%): 38%
[1]; Compound A 50 mg/kg
  TGI (%): 82%
[1]; [3]
  Estimated tumor volume (mm^3), average: 169 mm^3
[1]; [4]
  Estimated tumor volume (mm^3), average: 266 mm^3
[1]; [5]
  Estimated tumor volume (mm^3), average: 425 mm^3
[1]; [6]
  Estimated tumor volume (mm^3), average: 812 mm^3
[1]; [7]
  Estimated tumor volume (mm^3), average: 983 mm^3
[1]; [8]
  Estimated tumor volume (mm^3), average: 1661 mm^3
[1]; [9]
  Estimated tumor volume (mm^3), average: 162 mm^3
[1]; [10]
  Estimated tumor volume (mm^3), average: 195 mm^3
[1]; [11]
  Estimated tumor volume (mm^3), average: 210 mm^3
[1]; [12]
  Estimated tumor volume (mm^3), average: 325 mm^3
[1]; [13]
  Estimated tumor volume (mm^3), average: 375 mm^3
[1]; [14]
  Estimated tumor volume (mm^3), average: 467 mm^3
[2]; [3]
  Body weight change (%), average: 0.0%
[2]; [4]
  Body weight change (%), average: 2.1%
[2]; [5]
  Body weight change (%), average: 3.1%
[2]; [6]
  Body weight change (%), average: 6.4%
[2]; [7]
  Body weight change (%), average: 8.0%
[2]; [8]
  Body weight change (%), average: 10.6%
[2]; [9]
  Body weight change (%), average: 0.0%
[2]; [10]
  Body weight change (%), average: 1.5%
[2]; [11]
  Body weight change (%), average: 2.7%
[2]; [12]
  Body weight change (%), average: 5.5%
[2]; [13]
  Body weight change (%), average: 6.8%
[2]; [14]
  Body weight change (%), average: 5.8%

## CC(C)(C)c1cc(NC(=O)Nc2ccc(-c3cn4c(n3)sc3cc(OCCN5CCOCC5)ccc34)cc2)no1 [Quizartinib, N-(5-tert-butyl-isoxazol-3-yl)-N′-{4-[7-(2-morpholin-4-yl-ethoxy)imidazo[2,1-b][1,3]benzothiazol-2-yl]phenyl}urea, reference compound]
[2]; Quizartinib 0.5 mg/kg, day 6 after tumor inoculation
  Body weight change (%), average: 0.0%
[2]; Quizartinib 0.5 mg/kg, day 8 after tumor inoculation
  Body weight change (%), average: 4.2%
[2]; Quizartinib 0.5 mg/kg, day 10 after tumor inoculation
  Body weight change (%), average: 4.2%
[2]; Quizartinib 0.5 mg/kg, day 13 after tumor inoculation
  Body weight change (%), average: 8.5%
[2]; Quizartinib 0.5 mg/kg, day 15 after tumor inoculation
  Body weight change (%), average: 9.6%
[2]; Quizartinib 0.5 mg/kg, day 17 after tumor inoculation
  Body weight change (%), average: 10.7%
[2]; Quizartinib 1 mg/kg, day 6 after tumor inoculation
  Body weight change (%), average: 0.0%
[2]; Quizartinib 1 mg/kg, day 8 after tumor inoculation
  Body weight change (%), average: 0.2%
[2]; Quizartinib 1 mg/kg, day 10 after tumor inoculation
  Body weight change (%), average: 1.8%
[2]; Quizartinib 1 mg/kg, day 13 after tumor inoculation
  Body weight change (%), average: 4.6%
[2]; Quizartinib 1 mg/kg, day 15 after tumor inoculation
  Body weight change (%), average: 5.1%
[2]; Quizartinib 1 mg/kg, day 17 after tumor inoculation
  Body weight change (%), average: 5.8%
